We go through 18 compounds from article PMC6445162, “Effects of NS2B-NS3 protease and furin inhibition on West Nile and Dengue virus replication” (Journal of Enzyme Inhibition and Medicinal Chemistry, 2017).

Read-outs that look alike come from different tables or passages of the source. Peptide text beside a SMILES is read from it.

Assay [1] addresses DENV serotype 2 NS2B-NS3 protease construct (Dengue virus serotype 2). Put plainly: enzyme inhibition (percent inhibition of the cleavage of a fluorogenic substrate); DENV-2 NS2B-NS3pro ~39 nM in well; 100 µM inhibitor, 125 µM substrate Phac-Lys-Arg-Arg-AMC (KM = 60 µM); 100 mM Tris pH 8.5, 20% glycerol, 0.01% Triton X-100; room temperature.
Assay [2] has as its target T1, WNV NS2B-NS3 protease (West Nile virus, UniProt P06935).
T1 construct: WNV NS2B 40-amino acid cofactor together with the NS3 protease domain
Also noted: method as in PMID 23307694. Particulars: reference compounds available from previous studies; cited from earlier work.

Assay [3] has as its target T2, WNV-protease (West Nile virus, UniProt P06935).
T2 construct: WNV NS2B 40-amino acid cofactor together with the NS3 protease domain
Description: Incubation with WNV protease and HPLC analysis of cleavage. It counts as biochemical. Particulars: identical conditions, 4 h; data not shown. On the procedure: The preferred P3-P1 Lys-Lys-Arg segment[29] was used for the preparation of a series of peptidic inhibitors. The peptides were modified in their prime site segment and at the P4 position (Table 2). […] In contrast, under identical conditions approximately 33% of the chromogenic substrate Phac-Lys-Lys-Arg-pNA was cleaved (data not shown). Thus, these compounds seem to be poor substrates of the WNV NS2B-NS3 protease and therefore, act as competitive inhibitors. The best Ki values <0.2 µM were obtained for peptides with the general structure phenylacetyl-Lys-Lys-Arg-NH2 containing an N-terminal guanidinomethyl substitution at the P4-residue.

Assay [4] relates to DENV (strain 16681). Put plainly: DENV plaque assay (virus yield from infected Huh-7 cells, titration on VeroE6). Particulars: preliminary studies. In kind it is cell-based, Dengue virus serotype 2. On the procedure:
Inhibition of DENV propagation was determined by plaque assay as described recently[20]^,[28] with slight modifications. Huh-7 cells were seeded into 96-well plates and incubated overnight. The next day, cells were infected with DENV (strain 16681) at a multiplicity of infection (MOI) of 1 PFU/cell. Given concentrations of the compounds, dissolved in culture medium, were added to the cells together with the virus. After 2 h incubation at 37 °C, inocula were removed and cells were covered with fresh medium containing given concentrations of the inhibitors. Production of virus progeny was determined 48 h postinfection by titration of cell supernatants using a plaque assay on VeroE6 cells. Ribavirin was included as a reference compound.

Assay [5] concerns the target T3, DENV serotype 2 NS2B-NS3 protease (Dengue virus type 2, UniProt P14340).
T3 construct: The proteolytic activity of WNV and DENV is located in the N-terminal part of its NS3 protein; made in house
Description: Enzyme kinetic inhibition of DENV-2 NS2B-NS3 protease construct. Particulars: 100 μM inhibitor in the presence of 125 μM substrate; read-out: % Inhib. (DENV). It counts as biochemical, Dengue virus serotype 2. How it is done:
(§1) All measurements were performed at room temperature in black flat-bottom 96-well plates (Nunc, Langenselbold, Germany) using microplate readers (Tecan Safire^2, λex = 380 nm and λem = 460 nm, Tecan Group Ltd., Männedorf, Switzerland or Fluoroskan Ascent type 374, λex = 355 nm and λem = 460 nm; Thermo Fisher Scientific, Vantaa, Finland). The assays with the flavivirus protease constructs were performed with 125 μl buffer (100 mM Tris pH 8.5 containing 20% glycerol, 0.01% Triton X-100, and the inhibitor), 50 μl substrate solution, and were started by addition of 25 μl enzyme solution (total assay volume 200 μl).
(§2) The DENV serotype 2 NS2B-NS3 protease construct was prepared from an identical clone as described by D’Arcy et al.[26] The purification of the protease was carried out in a buffer with high ion-strength and low pH value, in the absence of glycerol (20 mM Bis-Tris, 500 mM NaCl, pH 6.3), in order to prevent autolysis of the enzyme. Purification was performed by using a 5 ml HisTrapTM FF column (GE Healthcare) and subsequently, a HiLoad 16/60 SuperdexTM 75 column (GE Healthcare). The assays with the DENV-2 NS2B-NS3^pr° (∼39 nM in well) were performed with the substrate Phac-Lys-Arg-Arg-AMC ×3 TFA (125 µM, 62.5 µM and 31.25 µM in assay, KM = 60 µM). All Ki values were obtained from Dixon plots[27] and are the average of at least two measurements. Due to the weak potency of most compounds against the DENV-2 NS2B-NS3 protease construct, only the percentage of inhibition at a constant inhibitor concentration of 100 µM in the presence of 125 µM substrate was determined.

Assay [6] has as its target T1, WNV NS2B-NS3 protease. Description: Enzyme kinetic inhibition of WNV NS2B-NS3 protease construct (Dixon plot). To be noted: covalently linked WNV NS2B-NS3 construct; substrate Phac-Leu-Lys-Lys-Arg-AMC; Dixon plots, average of at least two measurements. In kind it is biochemical. On the procedure: as §1
For measurements with the covalently linked WNV NS2B-NS3 protease construct (∼4 nM in assay) the substrate Phac-Leu-Lys-Lys-Arg-AMC ×3 TFA (50 µM, 100 µM and 200 µM in assay, KM = 47.5 µM) was used, as described previously.
as §2

For orientation: % inhibition means the percentage by which the read-out fell short of the control. Low readings indicate little suppression, high ones strong suppression. “4-(guanidinomethyl)-phenylacetyl-Lys-Lys-Arg-NH2 (peptide)” displayed a % inhibition at 100 μM inhibitor, 125 μM substrate in assay [1] of 65%. For `N=C(N)NCCCCNC(=O)C(CCCCN)NC(=O)C(CCCCN)NC(=O)Cc1ccc(Cl)c(Cl)c1` (stereo not drawn) [3,4-di-Cl-Phac-Lys-Lys-agmatine], the Ki in assay [2] was 400 nM. On to `N=C(N)NCCC[C@H](NC(=O)[C@H](CCCCN)NC(=O)[C@H](CCCCN)NC(=O)Cc1ccccc1)C(=O)Nc1ccc([N+](=O)[O-])cc1` [Phac-Lys-Lys-Arg-pNA] (HELM PEPTIDE1{[O=C(Cc1ccccc1)[*:2]].K.K.R.[O=[N+]([O-])c1ccc(N[*:1])cc1]}$$$$V2.0), for which, in assay [3], the “amount cleaved by the WNV-protease” value was “approximately 33%”.

Take `N=C(N)N[C@H]1CC[C@H](CNC(=O)[C@H](CCCCN)NC(=O)[C@H](CCCCN)NC(=O)Cc2ccc(Cl)c(Cl)c2)CC1` [inhibitor 1]: the “antiviral effect in DENV-infected cells” value in assay [4] is reported as “no antiviral effect”. Take `N=C(N)NCCC[C@H](NC(=O)[C@H](CCCCN)NC(=O)[C@H](CCCCN)NC(=O)Cc1ccccc1)C(N)=O` [inhibitor 27] (HELM PEPTIDE1{[O=C(Cc1ccccc1)[*:2]].K.K.R.[am]}$$$$V2.0): the inhibition at 100 µM in assay [5] is 20.8%. Besides, in assay [6], the Ki turned out to be 2.47 µM.

For `N=C(N)NCCC[C@H](NC(=O)[C@H](CCCCN)NC(=O)[C@H](CCCCN)NC(=O)Cc1ccc(Cl)c(Cl)c1)C(N)=O` [inhibitor 29], the inhibition at 100 µM in assay [5] was 25.1%. Also, in assay [6], the Ki came to 1.13 µM.

`N=C(N)NCCC[C@H](NC(=O)[C@H](CCCCN)NC(=O)[C@H](CCCCN)NC(=O)Cc1ccc(Cl)c(Cl)c1)C(=O)NCC(N)=O` [inhibitor 30] (HELM PEPTIDE1{[O=C(Cc1ccc(Cl)c(Cl)c1)[*:2]].K.K.R.G.[am]}$$$$V2.0): in assay [5], the inhibition at 100 µM worked out at 45%. In assay [6], the Ki was determined as 1.8 µM. On the same counts, the results for `N=C(N)NCCC[C@H](NC(=O)[C@H](CCCCN)NC(=O)[C@H](CCCCN)NC(=O)Cc1cccc(N)c1)C(N)=O` [inhibitor 31] are 27.5% and 1.2 µM.

For `N=C(N)NCCC[C@H](NC(=O)[C@H](CCCCN)NC(=O)[C@H](CCCCN)NC(=O)Cc1ccc2c(c1)OCO2)C(N)=O` [inhibitor 32], the inhibition at 100 µM in assay [5] was 19.9%. Further, the Ki in assay [6] worked out at 0.68 µM. In the case of `N=C(N)NCCC[C@H](NC(=O)[C@H](CCCCN)NC(=O)[C@H](CCCCN)NC(=O)Cc1ccc(O)cc1)C(N)=O` [inhibitor 33], the inhibition at 100 µM in assay [5] was 27.5%. Also, the Ki in assay [6] came out at 0.54 µM.

With `N=C(N)NCCC[C@H](NC(=O)[C@H](CCCCN)NC(=O)[C@H](CCCCN)NC(=O)Cc1ccc(-c2ccccc2)cc1)C(N)=O` [inhibitor 34], the inhibition at 100 µM in assay [5] turned out to be 27.1%. The compound further returned a Ki in assay [6] of 0.53 µM.

In the case of `N=C(N)NCCC[C@H](NC(=O)[C@H](CCCCN)NC(=O)[C@H](CCCCN)NC(=O)Cc1ccc(CN)cc1)C(N)=O` [inhibitor 35], in assay [5], the inhibition at 100 µM amounted to 31.7%. Moreover, the Ki in assay [6] is 0.38 µM. With `N=C(N)NCCC[C@H](NC(=O)[C@H](CCCCN)NC(=O)[C@H](CCCCN)NC(=O)Cc1cccc(CN)c1)C(N)=O` [inhibitor 36], in assay [5], the inhibition at 100 µM is 12.4%. In assay [6], the Ki was found to be 0.36 µM. On the same counts, the results for `N=C(N)NCCC[C@H](NC(=O)[C@H](CCCCN)NC(=O)[C@H](CCCCN)NC(=O)Cc1cccc(CNC(=N)N)c1)C(N)=O` [inhibitor 37] are 32.3% and 0.18 µM.

Consider `N=C(N)NCCC[C@H](NC(=O)[C@H](CCCCN)NC(=O)[C@H](CCCCN)NC(=O)Cc1ccc(CNC(=N)N)cc1)C(N)=O` [inhibitor 38, 4-(guanidinomethyl)-phenylacetyl-Lys-Lys-Arg-NH2], for which the inhibition at 100 µM in assay [5] came to 65%. In assay [6], this compound came in with a Ki of 0.11 µM. In the case of `N=C(N)NCCC[C@H](NC(=O)[C@H](CCCCN)NC(=O)[C@H](CCCCN)NC(=O)CC1CCCCC1)C(N)=O` [inhibitor 41], the inhibition at 100 µM in assay [5] came out at 36.7%. Moreover, in assay [6], the Ki is 4.8 µM.

Regarding `N=C(N)NCCC[C@H](NC(=O)[C@H](CCCCN)NC(=O)[C@H](CCCCN)NC(=O)CC12CC3CC(CC(C3)C1)C2)C(N)=O` [inhibitor 43], the inhibition at 100 µM in assay [5] came out at 24.2%. This compound also showed a Ki in assay [6] of 13.8 µM.

Take `N=C(N)NCCC[C@H](NC(=O)[C@H](CCCCN)NC(=O)[C@H](CCCCN)NC(=O)[C@@H](N)C12CC3CC(CC(C3)C1)C2)C(N)=O` [inhibitor 44] (HELM PEPTIDE1{[N[C@H](C(=O)[*:2])C12CC3CC(CC(C3)C1)C2].K.K.R.[am]}$$$$V2.0): the inhibition at 100 µM in assay [5] stood at 14.6%. For the same compound, in assay [6], the Ki worked out at 70 µM.
